Measurements: paper PMC4643906, “Interaction of the N-(3-Methylpyridin-2-yl)amide Derivatives of Flurbiprofen and Ibuprofen with FAAH: Enantiomeric Selectivity and Binding Mode” (PLoS ONE, 2015)
Numbering of substitutions follows the chain as printed. Read-outs that look alike come from different tables or passages of the source.

Experiments:
[1] = biological target: T1, rat brain FAAH (Rattus norvegicus, UniProt P97612); assay: Inhibition of [3H]AEA hydrolysis in rat brain homogenates; type: biochemical; conditions: for remaining activity at 0.7 µM: 0.7 μM inhibitor; for mode of inhibition (best-fit model) / α / Ki: 0.5–4 μM [3H]AEA; for mode of inhibition (best-fit model): compared with pure competitive model; for interaction with carprofen in multiple inhibition experiments: Dixon plots, together with carprofen
T1 construct: from tissue; host or cells: rat brain (minus cerebellum), washed membrane pellet
T1 sequence (P97612 1-579): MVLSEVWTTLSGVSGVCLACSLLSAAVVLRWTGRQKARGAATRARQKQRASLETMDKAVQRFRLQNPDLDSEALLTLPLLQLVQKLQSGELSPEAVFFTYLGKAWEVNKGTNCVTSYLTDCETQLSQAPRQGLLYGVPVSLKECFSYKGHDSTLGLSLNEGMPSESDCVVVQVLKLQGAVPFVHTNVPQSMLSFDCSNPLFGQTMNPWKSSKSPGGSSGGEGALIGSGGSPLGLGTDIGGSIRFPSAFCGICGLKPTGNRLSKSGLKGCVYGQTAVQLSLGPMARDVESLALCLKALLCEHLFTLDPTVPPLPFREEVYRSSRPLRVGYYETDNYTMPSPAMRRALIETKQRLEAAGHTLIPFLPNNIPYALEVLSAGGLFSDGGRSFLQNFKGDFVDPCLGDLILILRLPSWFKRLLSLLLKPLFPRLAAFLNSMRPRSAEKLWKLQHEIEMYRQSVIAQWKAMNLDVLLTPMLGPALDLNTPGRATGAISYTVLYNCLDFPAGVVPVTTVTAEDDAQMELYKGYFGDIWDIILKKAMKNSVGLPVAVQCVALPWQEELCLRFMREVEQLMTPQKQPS
Method: (§1) Brains (minus cerebella) from adult Wistar or Sprague-Dawley rats (killed by decapitation) and from male B6CBAF1/J mice (killed by cervical dislocation), stored at -80°C, were thawed, weighed and homogenized in cold buffer (20 mM HEPES, 1 mM MgCl2 pH 7.0). Homogenates were centrifuged (35,000 g at 4°C for 20 min) before the pellet was resuspended in cold homogenization buffer. Centrifugation and resuspension was repeated twice. The suspension was incubated at 37°C for 15 min to degrade any endogenous substrate able to interfere with the FAAH assay. After centrifugation (35,000 g at 4°C for 20 min), the pellet was resuspended in cold buffer (50 mM Tris-HCl, 1mM EDTA, 3 mM MgCl2, pH 7.4). The protein concentration was determined according to [27] after which the samples were frozen in aliquots at -80°C.
(§2) The assays were performed according to [28] with minor modifications. Briefly, homogenates or cell lysates in assay buffer (10 mM Tris-HCl, 1mM EDTA, pH 7.4) were mixed with substance dissolved in ethanol on ice. Hydrolysis reactions were initiated by addition of substrate ([^3H]AEA in 10 mM Tris-HCl, 1mM EDTA, pH 7.4 containing 10 mg ml^-1 fatty acid-free bovine serum, assay concentration 0.5 μM unless otherwise stated) and incubation at 37°C. For the brain homogenates, hydrolysis at 37°C was allowed to proceed for 10 min (assay volume was 200 μL, with 1 and 0.3 μg/assay protein concentrations of the rat and mouse homogenates, respectively). For the kinetic experiments, the AEA: fatty acid-free bovine serum albumin ratio was kept constant at 1: ~4.5 (μM). Following incubation, reactions were stopped by addition of 400 μL activated charcoal (80 μL activated charcoal + 320 μL 0.5 M HCl) and placement of samples on ice before centrifugation at 2500 rpm for 10 min. Aliquots (200 μL) of the supernatant were analyzed for tritium content by liquid scintillation spectroscopy with quench correction. Sample sizes were chosen on the basis of previous data investigating FAAH inhibitory properties of compounds.
(§3) pI50 and IC50 values were calculated using log(inhibitor) vs. response with variable slope (four parameters) algorithm in the GraphPad Prism computer program (GraphPad Software Inc., San Diego, CA. USA). […] The best fit was chosen by Akaike’s informative criteria. Ki and α values were obtained using the enzyme kinetics mixed model inhibition curve fitting algorithm available in the GraphPad Prism programme. This models the observed velocity v^app at a given substrate concentration where v^app = Vmax ^app/(1 + Km ^app/[S]), Vmax ^app = Vmax/(1+[I]/(αKi)) and Km ^app = Km(1+[I]/Ki)/(1+[I]/(αKi)) (http://www.graphpad.com/guides/prism/6/curve-fitting/index.htm?reg_mixered_model.htm, URL checked 16 October 2015). The model assuming competitive interactions (where α→∞) was also used, and the best fit was chosen by Akaike’s informative criteria. Robust linear regressions for the Dixon plots, which are less sensitive to outliers than the standard least-squares methodology were undertaken using the same computer programme.

[2] = biological target: T2, rat wild-type FAAH (FAAH^wt) (Rattus norvegicus, UniProt P97612); assay: Inhibition of [3H]AEA hydrolysis in lysates of HeLa cells expressing wild-type FAAH; type: biochemical
T2 construct: expressed in transfected cells; host or cells: HeLa cells, pcDNA4 plasmid, lysate
T2 sequence (P97612 1-579): T1 sequence (P97612 1-579)

[3] = biological target: T3, FAAH^T488A (Rattus norvegicus, UniProt P97612, T488A); assay: Inhibition of [3H]AEA hydrolysis in lysates of HeLa cells expressing FAAH^T488A; type: biochemical; conditions: FAAH^T488A lysate 0.4 μg/assay, 18 h, 0.5 μM [3H]AEA
T3 construct: expressed in transfected cells; host or cells: HeLa cells, pcDNA4 plasmid, lysate
T3 sequence (P97612 1-579 T488A): T1 sequence (P97612 1-579) with T488A

[4] = biological target: T4, mouse brain FAAH (Mus musculus, UniProt O08914); assay: Inhibition of [3H]AEA hydrolysis in mouse brain homogenates; type: biochemical; conditions: 0.5 μM [3H]AEA
T4 construct: from tissue; host or cells: mouse brain (minus cerebellum), washed membrane pellet
T4 sequence (O08914 1-579): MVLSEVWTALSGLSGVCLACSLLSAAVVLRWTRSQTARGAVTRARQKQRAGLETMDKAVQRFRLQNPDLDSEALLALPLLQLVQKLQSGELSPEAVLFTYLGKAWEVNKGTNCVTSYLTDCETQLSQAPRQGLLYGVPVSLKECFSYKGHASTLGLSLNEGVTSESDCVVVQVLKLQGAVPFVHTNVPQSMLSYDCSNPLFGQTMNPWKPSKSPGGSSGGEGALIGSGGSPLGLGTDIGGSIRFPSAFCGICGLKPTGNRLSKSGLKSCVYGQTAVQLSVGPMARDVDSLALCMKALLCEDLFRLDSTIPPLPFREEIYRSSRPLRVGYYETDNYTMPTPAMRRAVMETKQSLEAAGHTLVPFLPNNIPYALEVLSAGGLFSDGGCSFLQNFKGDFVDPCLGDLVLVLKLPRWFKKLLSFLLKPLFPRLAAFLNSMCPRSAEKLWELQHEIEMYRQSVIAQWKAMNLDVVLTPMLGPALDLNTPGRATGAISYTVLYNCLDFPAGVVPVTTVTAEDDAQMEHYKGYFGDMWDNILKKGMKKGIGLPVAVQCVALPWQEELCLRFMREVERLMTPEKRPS
Method: as §1, §2, §3

[5] = biological target: T4, mouse brain FAAH; set-up: method as in PMID 26406890; conditions: cited from earlier work; for IC50 / pI50: mouse brain homogenates
[6] = rat brain homogenates, 0.5 μM [3H]AEA, read-out: IC50
[7] = rat brain homogenates, 0.5 μM [3H]AEA, read-out: pI50 (converted)
[8] = linear mixed inhibition model fit
[9] = linear mixed inhibition model fit, read-out: Ki
[10] = median of Dixon plot intersections, read-out: Ki (Dixon plot)
[11] = rat brain homogenates, 0.5 μM [3H]AEA
[12] = FAAH^wt + empty vector (0.36 μg/assay) lysates, 18 h, 0.5 μM [3H]AEA
[13] = FAAH^wt lysate 0.04 μg/assay, 18 h, 0.5 μM [3H]AEA
[14] = preliminary experiments, another batch of wild-type FAAH, 1.5–2 μg/assay, 20 min at 37°C, read-out: potencies

Compound | IC50 [1, 6] [µM] | IC50 [1, 7] [µM] | α [1, 8] | Ki [1, 9] [µM] | Ki [1, 10] [µM] | nH (Hill slope) [1, 11] | IC50 [2, 14] [µM] | nH (Hill slope) [4] | further results
Cc1cccnc1NC(=O)C(C)c1ccc(CC(C)C)cc1 (racemic) [racemic Ibu-AM5, 2-(4-Isobutylphenyl)-N-(3-methylpyridin-2-yl)propanamide] | 1.2 | 1.2 |  |  |  |  |  |  | 
Cc1cccnc1NC(=O)[C@H](C)c1ccc(-c2ccccc2)c(F)c1 [(R)-Flu-AM1, (R)-2-(2-fluorobiphenyl-4-yl)-N-(3-methylpyridin-2-yl)propanamide] | 0.74 | 0.741 | 3.2±1.3 | 0.63 ± 0.17 | 0.28 | 0.90±0.04 | 1.6 | 0.78±0.09 | remaining activity at 0.7 µM ([1]; preincubation 0 min at 37°C): 50 ± 1%; remaining activity at 0.7 µM ([1]; preincubation 60 min at 37°C): 39 ± 4%; mode of inhibition (best-fit model) [1]: linear mixed inhibition; reversibility of inhibition ([1]; 20-fold dilution after 60 min of preincubation): completely reversible; interaction with carprofen in multiple inhibition experiments ([1]; 0.5 μM [3H]AEA): mutually exclusive manner; nH [2, 12]: 0.99±0.06; IC50 ([2]; FAAH^wt + empty vector (0.36 μg/assay) lysates, 18 h, 0.5 μM [3H]AEA, read-out: IC50): 8 µM; IC50 ([2]; FAAH^wt + empty vector (0.36 μg/assay) lysates, 18 h, 0.5 μM [3H]AEA, read-out: pI50 (converted)): 7.94 µM; nH [2, 13]: 1.02±0.07; IC50 ([2]; FAAH^wt lysate 0.04 μg/assay, 18 h, 0.5 μM [3H]AEA, read-out: IC50): 8.3 µM; IC50 ([2]; FAAH^wt lysate 0.04 μg/assay, 18 h, 0.5 μM [3H]AEA, read-out: pI50 (converted)): 8.32 µM; nH [3]: 1.47±0.37; IC50 ([3]; read-out: IC50): 28 µM; IC50 ([3]; read-out: pI50 (converted)): 28.2 µM; mode of inhibition ([5]; mouse brain FAAH): competitive; IC50 [5]: 8.8 µM; pI50 [5]: 5.05±0.06
Cc1cccnc1NC(=O)[C@H](C)c1ccc(CC(C)C)cc1 [(R)-Ibu-AM5, 2-(4-Isobutylphenyl)-N-(3-methylpyridin-2-yl)propanamide] | 5.7 | 5.62 | 3.1±1.1 | 10 ± 2.5 | 9.8 | 1.05±0.10 | 8.8 | 1.50±0.36 | fold less potent an inhibitor of FAAH than the (S)-enantiomer ([1]; rat FAAH): 10 fold; inhibition ([1]; rat brain homogenates, 0.5 μM [3H]AEA, read-out: maximum inhibition (best fit)): 92%; IC50 ([4]; read-out: IC50): 53 µM
Cc1cccnc1NC(=O)[C@@H](C)c1ccc(-c2ccccc2)c(F)c1 [(S)-Flu-AM1] | 0.99 | 1 | 5.6±3.6 | 0.79 ± 0.28 | 0.86 | 0.94±0.04 | 2.4 | 1.31±0.16 | mode of inhibition (best-fit model) [1]: linear mixed inhibition; IC50 [5]: 11 µM; pI50 [5]: 4.96±0.04
Cc1cccnc1NC(=O)[C@@H](C)c1ccc(CC(C)C)cc1 [(S)-Ibu-AM5, 2-(4-Isobutylphenyl)-N-(3-methylpyridin-2-yl)propanamide] | 0.59 | 0.589 | 3.2±1.5 | 0.8 ± 0.21 | 0.89 | 0.81±0.08 | 0.53 | 1.33±0.38 | interaction with carprofen in multiple inhibition experiments ([1]; 0.5 μM [3H]AEA): mutually exclusive manner; IC50 ([4]; read-out: IC50): 7 µM; IC50 ([4]; read-out: pI50 (converted)): 6.92 µM
CC(C(=O)O)c1ccc2c(c1)[nH]c1ccc(Cl)cc12 (stereo not shown) [Carprofen, reference compound] |  |  |  |  |  | 1.66±0.13 |  |  | nH [2, 12]: 4.28±0.41; nH [2, 13]: 3.00±0.31; maximum inhibition (best fit) ([2]; wild-type FAAH lysates, 18 h): 82–91%; nH [3]: 2.43±0.37
Cc1cccnc1NC(=O)Cc1ccc(CC(C)C)cc1 [Ibufenac-AM1, 2-(4-Isobutylphenyl)-N-(3-methylpyridin-2-yl)acetamide] | 68 | 67.6 |  |  |  |  |  |  | 
